Experimental data as given in patent US7816350B2, “Substituted [1,2,3] triazolo[4,5-D]pyrimidines as cdk inhibitors” (Institute of Experimental Botany ASCR, priority 2002, dated 2010).
“And” between values parts separate entries of the source, which are not always exact repeats. Equal values may be shown once.

Tests used:
[1] = target: CDK9 - cyclin T1 (Homo sapiens, UniProt P50750); experiment: CDK inhibitory activity, CDK9 - cyclin T1; type: biochemical
[2] = target: T1, p33^cdk2 (cyclin E) (Homo sapiens, UniProt P24941); experiment: CDK inhibition assay, p33cdk2 kinase, histone H1 phosphorylation; type: biochemical
T1 construct: made in house; host or cells: Sf9 insect cells (baculovirus co-infection)
Method: (§1) Cyclin-dependent kinases (p34^cdc2, p33^cdk2) and cyclins (cyclin B, E) are produced in Sf9 insect cells coinfected with appropriate baculoviral constructs. The cells are harvested 68-72 hrs post infection in lysis buffer for 30 min on ice and the soluble fraction is recovered by centrifugation at 14.000 g for 10 min. The protein extract is stored at −80° C.
(§2) Lysis buffer: 50 mM Tris pH 7.4, 150 mM NaCl, 5 mM EDTA, 20 mM NaF, 1% Tween, 1 mM DTT, 0.1 mM PMSF, leupeptine, aprotonine.
(§3) To carry out experiments on kinetics under linear conditions, the final point test system for kinase activity measurement is used. The kinase is added to reaction mixture in such a way as to obtain linear activity with respect to the concentration of enzyme and with respect to time.
(§4) The p34^cdc2 and p33^cdk2 kinase inhibition determination involves the use of 1 mg/ml histone H1 (Sigma, type III-S) in the presence of 15 μM [γ-^32P]ATP ([…]) (Amersham) in a final volume of 20 μl. Kinase activity is determined at 30° C. in the kinase buffer.
(§5) Tested compounds are usually dissolved to 100 mM solutions in DMSO, final concentration of DMSO in reaction mixture never exceeds 1%. The controls contain suitable dilutions of DMSO.
(§6) After 10 min, addition 3×SDS sample buffer stops the incubations. Phosphorylated proteins are separated electrophoretically using 12.5% SDS polyacrylamide gel. The measurement of kinase activity is done using digital image analysis.
(§7) The kinase activity is expressed as a percentage of maximum activity, the apparent inhibition constants are determined by graphic analysis (FIG. 1).
(§8) Kinase buffer: 50 mM Hepes pH 7.4, 10 mM MgCl2, 5 mM EGTA, 10 mM 2-glycerolphosphate, 1 mM NaF, 1 mM DTT

[3] = target: IκB-α kinase; experiment: IκB-α kinase inhibitory activity, in vitro kinase assay; type: biochemical
[4] = target: T2, p34^cdc2/cyclin B (CDC2) (Homo sapiens, UniProt P06493); experiment: CDK inhibition assay, p34cdc2/cyclin B kinase, histone H1 phosphorylation; type: biochemical
T2 construct: made in house; host or cells: Sf9 insect cells (baculovirus co-infection)
Method: as §1, §2, §3, §4, §5, §6, §7, §8

[5] = test system: K-562; experiment: In vitro cytotoxic activity, MTT assay, K-562; type: cell-based; details: Homo sapiens, K562, 72 hours
[6] = test system: MCF7; experiment: In vitro cytotoxic activity, MTT assay, MCF7; type: cell-based; details: Homo sapiens, 72 hours
Text: One of the parameters used, as the basis for colorimetric assays is the metabolic activity of viable cells. For example, a microtiter assay, which uses the tetrazolium salt MTT, is now widely used to quantitate cell proliferation and cytotoxicity. For instance, this assay is used in drug screening programs and in chemosensitivity testing. Because only metabolically active cells cleave tetrazolium salts, these assays detect viable cells exclusively. In the case of MTT assay, yellow soluble tetrazolium salt is reduced to coloured water-insoluble formazan salt. After it is solubilized, the formazan formed can easily and rapidly be quantified in a conventional ELISA plate reader at 570 nm (maximum absorbance). The quantity of reduced formazan corresponds to number of vital cells in the culture.
Human T-lymphoblastic leukemia cell line CEM; promyelocytic HL-60 and monocytic U937 leukemias; breast carcinoma cell lines MCF-7, BT549, MDA-MB-231; glioblastoma U87MG cells; cervical carcinoma cells HELA; sarcoma cells U2OS and Saos2; hepatocellular carcinoma HepG2; mouse immortalized bone marrow macrophages B2.4 and B10A.4; P388D1 and L1210 leukemia; B16 and B16F10 melanomas were used for routine screening of compounds. The cells were maintained in Nunc/Corning 80 cm^2 plastic tissue culture flasks and cultured in cell culture medium (DMEM with 5 g/l glucose, 2 mM glutamine, 100 U/ml penicillin, 100 μg/ml streptomycin, 10% fetal calf serum and sodium bicarbonate).
The cell suspensions that were prepared and diluted according to the particular cell type and the expected target cell density (2.500-30.000 cells per well based on cell growth characteristics) were added by pipette (80 μl) into 96/well microtiter plates. Inoculates were allowed a pre-incubation period of 24 hours at 37° C. and 5% CO2 for stabilisation. Four-fold dilutions of the intended test concentration were added at time zero in 20 μl aliquots to the microtiter plate wells. Usually, test compound was evaluated at six 4-fold dilutions. In routine testing, the highest well concentration was 266.7 μM, but it can be the matter of change dependent on the agent. All drug concentrations were examined in duplicates. Incubations of cells with the test compounds lasted for 72 hours at 37° C., in 5% CO2 atmosphere and 100% humidity. At the end of incubation period, the cells were assayed by using the MTT. Ten microliters of the MTT stock solution were pipetted into each well and incubated further for 1-4 hours. After this incubation period, formazan was solubilized by addition of 100 μl/well of 10% SDS in water (pH=5.5) followed by further incubation at 37° C. overnight. The optical density (OD) was measured at 540 nm with the Labsystem iEMS Reader MF (UK). The tumour cell survival (TCS) was calculated using the following equation: TCS=(ODdrug exposed well/mean ODcontrol wells)×100%. The IC50 value, the drug concentration lethal to 50% of the tumour cells, was calculated from the obtained dose response curves (FIG. 2).

T2 sequence (P06493 whole entry, species assumed): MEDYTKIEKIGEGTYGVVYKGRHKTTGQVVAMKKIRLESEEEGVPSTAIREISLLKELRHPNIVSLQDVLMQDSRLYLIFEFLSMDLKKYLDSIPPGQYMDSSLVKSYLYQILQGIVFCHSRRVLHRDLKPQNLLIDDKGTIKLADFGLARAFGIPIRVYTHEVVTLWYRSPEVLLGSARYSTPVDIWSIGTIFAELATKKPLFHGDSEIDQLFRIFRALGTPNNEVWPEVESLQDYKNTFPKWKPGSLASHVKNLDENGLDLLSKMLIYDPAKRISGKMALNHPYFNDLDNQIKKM
T2 sequence (P14635 whole entry partner, species assumed): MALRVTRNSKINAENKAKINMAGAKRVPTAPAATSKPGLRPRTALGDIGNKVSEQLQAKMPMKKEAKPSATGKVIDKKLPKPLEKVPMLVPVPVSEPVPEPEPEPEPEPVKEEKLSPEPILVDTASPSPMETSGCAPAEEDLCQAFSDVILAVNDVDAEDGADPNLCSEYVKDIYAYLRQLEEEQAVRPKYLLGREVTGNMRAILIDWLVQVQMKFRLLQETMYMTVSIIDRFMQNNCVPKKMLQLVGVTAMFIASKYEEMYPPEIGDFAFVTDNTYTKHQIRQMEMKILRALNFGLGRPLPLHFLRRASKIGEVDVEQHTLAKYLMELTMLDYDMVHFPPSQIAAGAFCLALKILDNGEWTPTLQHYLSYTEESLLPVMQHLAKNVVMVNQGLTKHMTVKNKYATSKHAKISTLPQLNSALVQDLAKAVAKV
CDK9 - cyclin T1, sequence (P50750 whole entry): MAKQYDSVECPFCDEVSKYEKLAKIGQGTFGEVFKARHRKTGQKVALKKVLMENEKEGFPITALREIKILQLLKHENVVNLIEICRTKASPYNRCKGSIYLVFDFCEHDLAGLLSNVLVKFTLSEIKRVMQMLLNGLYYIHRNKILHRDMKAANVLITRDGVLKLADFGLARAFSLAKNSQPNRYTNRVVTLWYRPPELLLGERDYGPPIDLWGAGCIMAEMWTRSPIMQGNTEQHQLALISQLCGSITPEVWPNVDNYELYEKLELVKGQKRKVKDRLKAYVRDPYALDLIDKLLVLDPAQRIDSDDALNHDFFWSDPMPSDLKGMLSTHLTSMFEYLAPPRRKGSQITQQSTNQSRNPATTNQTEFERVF
CDK9 - cyclin T1, sequence (O60563 whole entry partner): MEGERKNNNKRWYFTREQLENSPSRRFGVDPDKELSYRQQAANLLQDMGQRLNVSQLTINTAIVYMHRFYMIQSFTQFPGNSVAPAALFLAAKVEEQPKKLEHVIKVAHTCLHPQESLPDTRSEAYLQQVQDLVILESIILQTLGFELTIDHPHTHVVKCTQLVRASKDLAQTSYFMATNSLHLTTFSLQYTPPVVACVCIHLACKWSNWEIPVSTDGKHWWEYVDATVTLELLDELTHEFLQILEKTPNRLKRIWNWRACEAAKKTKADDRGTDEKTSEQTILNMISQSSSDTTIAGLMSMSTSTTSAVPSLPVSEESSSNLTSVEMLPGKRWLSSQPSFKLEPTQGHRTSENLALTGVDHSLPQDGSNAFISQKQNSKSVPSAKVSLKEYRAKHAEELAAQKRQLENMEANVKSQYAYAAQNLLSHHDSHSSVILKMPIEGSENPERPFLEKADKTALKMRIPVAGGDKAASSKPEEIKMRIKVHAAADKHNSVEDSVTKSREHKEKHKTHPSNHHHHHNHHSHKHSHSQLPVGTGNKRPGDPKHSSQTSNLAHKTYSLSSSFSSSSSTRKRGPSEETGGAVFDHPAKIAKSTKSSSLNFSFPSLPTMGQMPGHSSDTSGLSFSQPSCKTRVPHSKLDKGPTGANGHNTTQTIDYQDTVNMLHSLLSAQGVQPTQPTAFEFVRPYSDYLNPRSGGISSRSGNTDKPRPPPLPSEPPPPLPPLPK

| SMILES | IC50 [1] [µM] | IC50 [2] [µM] | IC50 [3] | IC50 [4] [µM] | IC50 [5] [µM] | IC50 [6] [µM] |
| --- | --- | --- | --- | --- | --- | --- |
| CC(C)n1nnc2c(NCc3cccc(O)c3)nc(NC3CCC(N)CC3)nc21 (centres unmarked) | 1.7 | > 10 |  |  |  |  |
| CC(C)n1nnc2c(NCc3ccccc3)nc(NCCCO)nc21 | 29.2 | 54.6 |  |  |  |  |
| CC(C)n1nnc2c(Nc3cccc(Cl)c3)nc(NC3CCCCC3N)nc21 (centres unmarked) |  |  | > 100 µM | 7 | 12.2 | 8.9 |
| CC(C)n1nnc2c(Nc3cccc(Cl)c3)nc(NCCN)nc21 |  |  | > 100 µM | > 100 | > 100 | 100 |
| CC(C)n1nnc2c(NCc3ccccc3O)nc(NC3CCC(O)CC3)nc21 (centres unmarked) | 9.9 | > 10 |  |  |  |  |
| CC(C)n1nnc2c(Nc3cccc(Cl)c3)nc(NC3CCC(N)CC3)nc21 (centres unmarked) | 1.1 | 3.1 |  |  |  |  |
| CC(C)[C@H](CO)Nc1nc(Nc2ccc(N)c(Cl)c2)c2nnn(C(C)C)c2n1 |  |  | > 100 µM | 40 | 28.9 | 22.5 |
| CC(C)[C@H](CO)Nc1nc(Nc2cccc(Cl)c2)c2nnn(C(C)C)c2n1 |  |  | 80 µM | 20 | 96 | 80 |
| CC(C)n1nnc2c(NCc3ccc(O)cc3)nc(NC3CCC(N)CC3)nc21 (centres unmarked) | 1.4 | > 10 |  |  |  |  |
| CC(C)n1nnc2c(Nc3cccc(Cl)c3)nc(N(CCO)CCO)nc21 |  |  | > 100 µM | 35 | > 100 | 100 |
| CC(=O)Oc1cccc(CNc2nc(N[C@@H](CO)C(C)C)nc3c2nnn3C(C)C)c1 |  |  | > 100 µM | 20 | 31.7 | 28.2 |
| CC(=O)c1cccc(CNc2nc(N[C@@H](CO)C(C)C)nc3c2nnn3C(C)C)c1 |  |  | > 100 µM | 40 | 50.6 | 47.6 |
| CC(C)[C@H](CO)Nc1nc(NCc2ccccc2O)c2nnn(C(C)C)c2n1 |  |  | > 100 µM | 7 | 25 | 24 |
| CC(C)[C@H](CO)Nc1nc(Nc2ccc(Cl)c(C(=O)O)c2)c2nnn(C(C)C)c2n1 |  |  | 80 µM | 30 | 42 | 21 |
| CC(=O)Oc1ccccc1CNc1nc(N[C@@H](CO)C(C)C)nc2c1nnn2C(C)C |  |  | 85 µM | 10 | 24 | 24.1 |
| CC(C)[C@H](CO)Nc1nc(Nc2ccccc2)c2nnn(C(C)C)c2n1 |  |  |  | 40 | 100 | 80 |
| CC(C)[C@H](CO)Nc1nc(NCc2cccc(O)c2)c2nnn(C(C)C)c2n1 |  |  | 80 µM | 8 | 17.5 | 18 |
| CC(C)[C@H](CO)Nc1nc(Nc2ccc(Br)cc2)c2nnn(C(C)C)c2n1 |  |  | > 100 µM | 35 | 75 | 64 |
| CC(C)n1nnc2c(Nc3cccc(Cl)c3)nc(NCCO)nc21 |  |  | > 100 µM |  | > 100 | > 100 |
| CC[C@H](CO)Nc1nc(Nc2cccc(Cl)c2)c2nnn(C(C)C)c2n1 |  |  | > 100 µM and 80 µM | 35 | > 100 | > 100 |
| CC(C)[C@H](CO)Nc1nc(Nc2ccc(O)c(C(=O)O)c2)c2nnn(C(C)C)c2n1 |  |  | > 100 µM | 34 | 28 | 24 |
| CC(C)n1nnc2c(Nc3cccc(Cl)c3)nc(NCCCO)nc21 |  |  | > 100 µM |  | > 100 | > 100 |
| CC[C@H](CO)Nc1nc(NCc2ccccc2)c2nnn(C(C)C)c2n1 | 11.5 | 23.2 |  |  |  |  |
| CC(C)[C@H](CO)Nc1nc(Nc2ccc(Cl)cc2)c2nnn(C(C)C)c2n1 |  |  | 90 µM | 35 | 19.4 | 17.6 |

| SMILES | IC50 [1] [µM] | IC50 [2] [µM] | IC50 [3] | IC50 [4] [µM] | IC50 [5] [µM] | IC50 [6] [µM] |
| --- | --- | --- | --- | --- | --- | --- |
| COc1cccc(CNc2nc(NCCO)nc3c2nnn3C)c1O |  |  | > 100 µM | 43 |  |  |
| CC(C)[C@H](CO)Nc1nc(NCc2ccc(Cl)c(N)c2)c2nnn(C(C)C)c2n1 |  |  | > 100 µM | 30 |  |  |
| CC(C)n1nnc2c(NCc3ccccc3)nc(NCCO)nc21 |  |  | > 100 µM | > 100 |  |  |
| Cn1nnc2c(NCc3cccc(Cl)c3O)nc(NCCO)nc21 |  |  | > 100 µM | 70 |  |  |
| CC(C)C(CO)Nc1nc(NCc2ccccc2O)c2nnn(C(C)C)c2n1 (centres unmarked) | 2.5 | 6.9 |  |  |  |  |
| CC(C)[C@H](CO)Nc1nc(Nc2ccc(Cl)c(N)c2)c2nnn(C(C)C)c2n1 |  |  |  | 24 | 18.8 | 16.4 |
| CC[C@H](CO)Nc1nc(NCc2ccc(OC)c(O)c2)c2nnn(C(C)C)c2n1 | 2 | 6.4 |  |  |  |  |
| CC(C)n1nnc2c(Nc3cccc(Cl)c3)nc(NCCCN)nc21 |  |  | > 100 µM | > 100 | > 100 | 100 |
| COc1cccc(CNc2nc(N[C@@H](CO)C(C)C)nc3c2nnn3C(C)C)c1O |  |  | > 100 µM | 55 |  |  |
| Cn1nnc2c(NCc3ccccc3)nc(NCCCN)nc21 |  |  | > 100 µM | 90 |  |  |
| CC(=O)c1ccccc1CNc1nc(N[C@@H](CO)C(C)C)nc2c1nnn2C(C)C |  |  | > 100 µM | 25 | 34.9 | 40.8 |
| Cn1nnc2c(NCc3ccccc3)nc(NC3CCCCC3N)nc21 (centres unmarked) |  |  | 70 µM | 25 |  |  |
| Cn1nnc2c(NCc3ccc(Cl)c(N)c3N)nc(NCCO)nc21 |  |  | > 100 µM | 68 |  |  |
| OC1CCC(Nc2nc(Nc3cccc(Cl)c3)c3nn[nH]c3n2)CC1 (centres unmarked) | 8 | 0.1 |  |  |  |  |
| CC[C@H](CO)Nc1nc(Nc2ccc(Br)cc2)c2nnn(C(C)C)c2n1 |  |  | 90 µM | 26 |  |  |
| CC[C@H](CO)Nc1nc(NCc2ccccc2O)c2nnn(C(C)C)c2n1 |  |  | 80 µM | 14 |  |  |
| CC[C@H](CO)Nc1nc(NCc2ccc(Cl)c(N)c2N)c2nnn(C(C)C)c2n1 |  |  | > 100 µM | 45 |  |  |
| CC(=O)c1ccccc1CNc1nc(NCCO)nc2c1nnn2C |  |  | > 100 µM | 70 |  |  |
| CC(C)n1nnc2c(NCc3ccccc3)nc(NCCCO)nc21 [2-(3-Hydroxypropylamino)-6-benzylamino-9-isopropyl-8-azapurine] |  |  | > 100 µM | > 100 |  |  |
| Cn1nnc2c(NCc3c(O)cc(Cl)cc3O)nc(NCCO)nc21 |  |  | > 100 µM | 22 |  |  |
| CC[C@H](CO)Nc1nc(NCc2cc(O)c(OC)cc2O)c2[nH]nc(C(C)C)c2n1 |  |  | > 100 µM | 12 |  |  |
| Cn1nnc2c(NCc3cccc(O)c3)nc(NCCO)nc21 |  |  | 40 µM | 17 |  |  |
| Cn1nnc2c(NCc3ccccc3)nc(NC3CCC(N)CC3)nc21 (centres unmarked) |  |  | 40 µM | 16 |  |  |
| CC(C)[C@H](CO)Nc1nc(Nc2cc(N)cc(Cl)c2)c2nnn(C(C)C)c2n1 |  |  | 80 µM | 27 |  |  |
